Source: patent publication US10383910B2, “Methods of increasing fertility of a male subject with costus speciosus extract” (priority 2016, dated 2019)

Experiments:
testis of the rats = assay: histological examination of the rat testis (light microscopy, hematoxylin-eosin); conditions: 90 days
Experimental: The experiments in the Examples were conducted on 30 male albino rats of the Wister strain with an age range of 40-45 days (approximately 6 weeks) and a weight range of 68-122 g. […] The rats were provided feed and water, and bred in a private room with a temperature of 24±2° C., a relative humidity of 55±5%, and a 12-hour light/12-hour dark cycle.
The first treatment group (GI) was a control treatment group composed of 5 rats that were given distilled water orally throughout the experiment.
The second treatment group (GII) was composed of 5 rats that were orally administered with only the root extract of Costus speciosus at a dose of 2 mg/kg body weight/day.
The third treatment group (GIII) was composed of 5 rats that were orally administered with risperidone at a low dose of 1 mg/kg body weight/day.
The fourth treatment group (GIV) was composed of 5 rats that were orally administered with both risperidone at the low dose of 1 mg/kg body weight/day and the root extract of Costus speciosus at 2 mg/kg body weight/day.
The fifth treatment group (GV) was composed of 5 rats that were orally administered with risperidone at a high dose of 2 mg/kg body weight/day.
The sixth treatment group (GVI) was composed of 5 rats that were orally administered with both the high dose of risperidone at 2 mg/kg body weight/day and the root extract of Costus speciosus at 2 mg/kg body weight/day. […]

[1] = body weights of rats after 90 days of treatment; type: in vivo, rat
Experimental: (§1) Statistical analyses were performed using SPSS software version 21.00. One-way analysis of variance (ANOVA), post-hoc and least significant difference (LSD) were performed for intergroup comparisons. P>0.05, P≤0.05, and P≤0.001 were considered non-significant, significant, and highly significant, respectively.

[2] = plasma levels of testosterone of rats after 90 days of treatment; type: in vivo, rat
Experimental: as §1

testes = testes weights of rats after 90 days of treatment; type: in vivo, rat; conditions: vs control group GI
Experimental: as §1

[3] = GV: risperidone high dose 2 mg/kg/day oral

For `Cc1nc2n(c(=O)c1CCN1CCC(c3noc4cc(F)ccc34)CC1)CCCC2` [risperidone, Risperidone], the “histological findings in the testis” value (testis of the rats; GIII: risperidone low dose 1 mg/kg/day oral, vs GI) was “abnormal, disorganized, and atrophied seminiferous tubules (ST), disorganization of germinal epithelium, a loss of spermatogenic cell types (pointed by arrows), and a massive and wide-spread destruction of germ cells”, the “histological findings in the testis” value (testis of the rats; [3]) was “degeneration of the germinal epithelium lining (arrowheads), vacuolation of seminiferous tubules (ST) (*), and intertubular oedema” and the body weight ([1]; GIII: risperidone low dose 1 mg/kg/day oral, vs GI or GII) was “significant increase in body weight”. The body weight ([1]; GV: risperidone high dose 2 mg/kg/day oral, vs GIII (low dose risperidone)) was “significant increase in body weight”, the “plasma level of testosterone” value ([2]; GIII: risperidone low dose 1 mg/kg/day oral, vs GIV (low dose + root extract)) was “insignificant reduction in the plasma level of testosterone” and the “plasma level of testosterone” value ([2]; GV: risperidone high dose 2 mg/kg/day oral, vs GVI (high dose + root extract)) was “insignificant reduction in the plasma level of testosterone”. For the same molecule, the testes weight (testes; GIII: risperidone low dose 1 mg/kg/day oral) was “insignificant reduction in testes weight” and the testes weight (testes; [3]) was “insignificant reduction in testes weight”.
